Target: T1, MPH-wt (Pseudomonas sp. WBC-3, UniProt Q841S6)
T1 sequence (Q841S6 36-331): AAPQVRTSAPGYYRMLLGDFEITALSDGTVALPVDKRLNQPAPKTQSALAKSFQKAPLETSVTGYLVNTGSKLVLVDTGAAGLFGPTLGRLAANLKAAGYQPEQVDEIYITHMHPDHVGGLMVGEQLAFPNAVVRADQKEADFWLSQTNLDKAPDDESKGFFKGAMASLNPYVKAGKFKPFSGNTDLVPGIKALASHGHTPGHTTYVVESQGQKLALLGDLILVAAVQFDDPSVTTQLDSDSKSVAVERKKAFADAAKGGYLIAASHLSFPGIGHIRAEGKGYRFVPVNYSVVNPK
Experiment: hydrolysis kinetics, purified enzyme
Format: biochemical

O=C1CCc2ccccc2O1 [dihydrocoumarin]
KM: only moderate DHCH activity
